Entries after “also recorded” stand apart in the source; their conditions may differ.
Experiments:
[1] = Calcaemic effects in mice at 0.3 μg/kg; assay type: in vivo; conditions: for Calcaemic activity: blood calcium in percentage over that induced by 1,25D: ip every two days for 21 days, 0.3 μg/kg (table title prints 0.3 mg/kg); for Hypercalcemia (serum calcium versus control): 0.3 μg/Kg ip every 2 days for 21 days
Experimental: FIG. 8. […] 1,25D and the various analogues were injected intraperitoneally every 2 days for 21 days at a dose of 0.3 μg/Kg. After treatment the calcium levels in the serum were evaluated and the values were represented as mean±SD in […].
(§1) Calcium mobilization of analogues was determined in 28 male CD-1 mice (6-8 weeks old). 6 Groups of 4 mice each were established, which mice were intraperitoneally (ip) injected with 0.3 μg/kg weight of each analogue or 1,25D dissolved in sesame oil every two days for 3 weeks. A seventh group of 4 mice treated with the carrier (sesame oil) served as controls. Calcium levels in blood were determined by QuantiChomCalciumAssay Kit (BioAssaySystems, Hayward, Calif., USA). In addition, a dose-response assay was performed to assess the effect of administration of the analogues PG-403 and PG136p and hormone (1,25D) at different doses on calcium levels. This assay was performed in male mice (5 mice per group), and the doses used were: 0.1, 0.5, 1, and 5 μg/kg weight of each analogue or 1,25D, i.p. administered every two days for 21 days. In addition, a control group (mice treated with sesame oil) was used.

[2] = Dose-response assay of serum calcium in mice; assay type: in vivo
Experimental: FIG. 9. […] 1,25D (dose of 0.3 μg/kg) and analogues (doses of 0.1, 0.5, 1 and 5 μg/kg) were injected intraperitoneally every 2 days for 21 days. After treatment the calcium levels in the serum were evaluated and the values were represented as mean±SD in […].
as §1

[3] = Body weight of mice in the dose-response assay; assay type: in vivo
Experimental: FIG. 10. […] 1,25D (dose of 0.3 μg/kg) and analogues (doses of 0.1, 0.5, 1 and 5 μg/kg) were injected intraperitoneally every 2 days for 21 days. Animals were weighed every two days during treatment. The values were represented as mean±SD in […].
In this experiment, also the weight of the animals was quantified to determine whether there was any modification throughout the treatment.

[4] = target: T1, vitamin D receptor (VDR) (Homo sapiens, UniProt P11473); test: Competitive binding to vitamin D receptor (Polarscreen VDR competitor assay, fluorescence polarisation); conditions: for Binding to VDR % relative to 1,25D (100%): activity relative to natural hormone 1,25D normalised at 100%; for IC50: competitive displacement, 10^−11 to 10^−5 M
T1 construct: purchased Invitrogen
T1 sequence (P11473 1-427): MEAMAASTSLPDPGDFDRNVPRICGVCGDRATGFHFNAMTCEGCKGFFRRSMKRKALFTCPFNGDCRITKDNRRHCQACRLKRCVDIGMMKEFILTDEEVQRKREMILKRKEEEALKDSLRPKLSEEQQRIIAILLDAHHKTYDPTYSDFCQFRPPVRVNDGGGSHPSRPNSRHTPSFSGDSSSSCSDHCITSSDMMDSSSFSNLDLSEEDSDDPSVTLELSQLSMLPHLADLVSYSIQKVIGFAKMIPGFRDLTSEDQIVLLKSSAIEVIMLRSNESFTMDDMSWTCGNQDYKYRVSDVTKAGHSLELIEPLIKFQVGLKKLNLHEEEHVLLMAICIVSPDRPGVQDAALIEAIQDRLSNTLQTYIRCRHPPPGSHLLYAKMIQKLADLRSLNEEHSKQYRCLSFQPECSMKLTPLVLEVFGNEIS
Experimental: FIG. 1. […] The values represent the mean of at least two experiments.
Polarised fluorescence was determined in 384-well black plates for 200 ms/well using a Mithras LB 940 device (Berthold Technologies).

[5] = tested on: MCF-7 cells; test: 3D cell culture on matrigel (spheroid size), MCF-7; assay type: cell-based, human; conditions: for Cell proliferation percentage MCF-7 3D: 10^−7 M, matrigel spheroids, 100% control cells
Experimental: FIG. 7. MCF-7 cells were shown for 10 days on a matrigel bed until they formed a 3D cellular structure. […] After treatment, the spheroids were stained with DAPI (4′,6-diamino-2-phenylindole) for 1 hour and photographed under an inverted microscope with ultraviolet light. The size of these spheroids was measured and the values were represented as mean±SD in relative units. […] Those cells treated with the carrier were considered as the control value.
For 3D cell culture, a cushion of 200 μl of Matrigel (BD Biosciences) was used in each of the wells of multi-well plates of 24 wells. They were incubated at 37° C. for 20 minutes for their solidification and subsequently the cell suspension (5×10^3 cells per 100 μl volume of medium) was loaded onto the matrigel solidified and another incubation at 37° C. was performed for 30 minutes so that the cells penetrated properly on the matrigel base. 500 μl of DMEM medium were added to each well, and the cells were maintained in culture for 10 days. At the end of this time, the cells were started to be treated with each of the 5 analogues used and 1,25D.

[6] = tested on: PC-3 cells; test: MTT proliferation assay, PC-3; conditions: 10^−7 M, 48 hours, 100% control cells
Experimental: Proliferation assay in the PC-3 cell line of human prostate adenocarcinoma. […] The values were plotted in the graphs as mean±SD. As proliferation value, 100% was considered the normal growth of PC-3 cells treated with the carrier in the control.
(§2) The cells were cultured in 90-mm plates in essential culture medium DMEM, supplemented with 10% bovine foetal serum free of steroid hormones, 100 U/ml penicillin, 100 μg/ml streptomycin and 2 mM non-essential amino acids (L-glutamine) at 37° C. in a humid atmosphere O2/CO2 (95/5%).
(§3) The first is an indirect method for determining living cells, wherein the yellow water soluble MTT is reduced in mitochondria, thus generating a purple insoluble product (formazan). […] After this time, the culture medium was removed and 500 μl of dimethylsulfoxide (DMSO) was added to each well to solubilise the formazan incorporated by the cells.

[7] = tested on: MCF-7 cells; test: MTT proliferation assay, MCF-7; conditions: 10^−7 M, 48 hours, 100% control cells
Experimental: Proliferation assay in the MCF-7 cell line of human breast adenocarcinoma. […] The values were plotted in the graphs as mean±SD. As proliferation value, 100% was considered the normal growth of MCF-7 cells treated with the carrier in the control.
as §2
Cell proliferation/toxicity in breast cancer lines was assessed by both incorporation assays of 3-(4,5-dimethylthiazol-2-yl)-2,5-difeniltetrazolium (MTT) bromide and cell culture in three dimensions (3D).
as §3

[8] = tested on: HaCaT cells; test: MTT proliferation assay, HaCaT; conditions: 10^−7 M, 48 hours, 100% control cells
Experimental: Proliferation assay in the HaCaT cell line of human keratinocytes. […] The values were plotted in the graphs as mean±SD. As proliferation value, 100% was considered the normal growth of HaCaT cells treated with the carrier in the control.
as §2, §3

[9] = tested on: SKOV-3 cells; test: MTT proliferation assay, SKOV-3; conditions: 10^−7 M, 48 hours, 100% control cells
Experimental: Proliferation assay in the SKOV-3 cell line of human ovary adenocarcinoma. […] The values were plotted in the graphs as mean±SD. As proliferation value, 100% was considered the normal growth of SKOV-3 cells treated with the carrier in the control.
as §2, §3

[10] = tested on: 24-hydroxylase promoter, CYP24A1 (pCYP24A1-Luc); test: Transactivation reporter assay (pCYP24A1-Luc) in MCF-7 cells; conditions: for EC50: Homo sapiens, MCF7, 24 h, read-out: Transcriptional activity EC50; for Transcriptional activity % relative to 1,25D (100%): MCF-7 cells, pCYP24A1-Luc
Experimental: MCF-7 cells were transfected with the reporter vector of 24-hydroxylase (pCYP24A1-Luc vector) for 24 hours. […] The experiments were performed at least twice. The error bars represent the standard deviation (SD).

| SMILES | Calcaemic activity: blood calcium in percentage over that induced by 1,25D [1] | Binding to VDR % relative to 1,25D (100%) [4] | IC50 [4] | Hypercalcemia (serum calcium versus control) [1] | EC50 [10] | Blood calcium ([1]; 0.3 μg/kg ip every two days for 3 weeks, carrier 11.9±0.7) | Serum calcium versus controls, 1,25D ([2]; 0.5 μg/kg weight ip every two days for 21 days) | Body weight, 1,25D ([3]; mice, 0.5 μg/kg weight ip every two days for 21 days) | Cell proliferation percentage MCF-7 3D [5] | Cell proliferation percentage PC-3 2D [6] | Cell proliferation percentage MCF-7 2D [7] | Cell proliferation percentage HaCaT 2D [8] | Cell proliferation percentage SKOV-3 2D [9] | Transcriptional activity % relative to 1,25D (100%) [10] | Three-dimensional growth of MCF-7 spheroids (in words) ([5]; 10^−7 M for 7 days) | Serum calcium versus control animals (placebo) ([2]; 5 μg/kg weight ip every two days for 21 days) | Serum calcium versus controls, analogues ([2]; doses 0.1, 0.5, 1 and 5 μg/kg ip every 2 days for 21 days) | Body weight versus control animals, analogues ([3]; mice, 0.1, 0.5, 1 and 5 μg/kg ip every 2 days for 21 days) |
| --- | --- | --- | --- | --- | --- | --- | --- | --- | --- | --- | --- | --- | --- | --- | --- | --- | --- | --- |
| C=C1/C(=C\C=C2/CCC[C@]3(C)[C@@H]([C@H](C)CCCC(C)(C)O)CC[C@@H]23)C[C@@H](O)C[C@@H]1O [1,25D, 1,25-dihydroxyvitamin D3, reference compound] | 100% |  |  |  |  | 14.7 ± 0.58 mg/dL | induces a significant increase in serum calcium | produced a significant decrease in the weight of the animals |  |  |  |  |  |  |  |  |  |  |
| C=C1/C(=C\C=C(/CCC)c2cccc(CCCCCC(C)(C)O)c2)C[C@@H](O)C[C@@H]1O [PG-152, (1R,3S,Z)-5-((E)-3-(3-(6-hydroxy-6-methylheptyl)phenyl)hex-2-enyliden)-4-methylenecyclohexane-1,3-diol] | 41% | 10% | 17.6 nM | does not produce hypercalcemia | 9.27 nM |  |  |  | 74% | 83% | 69% | 71% | 82% | 21% |  |  |  |  |
| C=C1/C(=C\C=C(/CCCCCC(C)(C)O)c2cccc(CCCCCC(C)(C)O)c2)C[C@@H](O)C[C@@H]1O [PG-385, (1R,3S,Z)-5-((E)-9-hydroxy-3-(3-(6-hydroxy-6-methylheptyl)phenyl)-9-methyldec-2-enyliden)-4-methylenecyclohexane-1,3-diol] | 9% |  |  | does not produce hypercalcemia | 5.6 nM |  |  |  |  |  | 69% |  |  | 35% |  |  |  |  |
| C=C1/C(=C\C=C\c2cc(CCCCCC(C)(C)O)cc(CCCCCC(C)(C)O)c2)C[C@@H](O)C[C@@H]1O [PG-433, (1R,3S,Z)-5-((E)-3-(3.5-(6-hydroxy-6-methylheptyl)phenyl)allyliden)-4-methylenecyclohexane-1,3-diol] | 8% |  |  | does not produce hypercalcemia | 2.95 nM |  |  |  |  |  | 69% |  |  | 67% |  |  |  |  |

Second part, led by results:

| Calcaemic activity: blood calcium in percentage over that induced by 1,25D [1] | Binding to VDR % relative to 1,25D (100%) [4] | IC50 [4] | Hypercalcemia (serum calcium versus control) [1] | EC50 [10] | SMILES | Blood calcium ([1]; 0.3 μg/kg ip every two days for 3 weeks, carrier 11.9±0.7) | Serum calcium versus controls, 1,25D ([2]; 0.5 μg/kg weight ip every two days for 21 days) | Body weight, 1,25D ([3]; mice, 0.5 μg/kg weight ip every two days for 21 days) | Cell proliferation percentage MCF-7 3D [5] | Cell proliferation percentage PC-3 2D [6] | Cell proliferation percentage MCF-7 2D [7] | Cell proliferation percentage HaCaT 2D [8] | Cell proliferation percentage SKOV-3 2D [9] | Transcriptional activity % relative to 1,25D (100%) [10] | Three-dimensional growth of MCF-7 spheroids (in words) ([5]; 10^−7 M for 7 days) | Serum calcium versus control animals (placebo) ([2]; 5 μg/kg weight ip every two days for 21 days) | Serum calcium versus controls, analogues ([2]; doses 0.1, 0.5, 1 and 5 μg/kg ip every 2 days for 21 days) | Body weight versus control animals, analogues ([3]; mice, 0.1, 0.5, 1 and 5 μg/kg ip every 2 days for 21 days) |
| --- | --- | --- | --- | --- | --- | --- | --- | --- | --- | --- | --- | --- | --- | --- | --- | --- | --- | --- |
| 34% | 12% | 13.6 nM | does not produce hypercalcemia | 10 nM | C=C1/C(=C\C=C(/CCCC)c2cccc(CCCCCC(C)(C)O)c2)C[C@@H](O)C[C@@H]1O [PG-128, (1R,3S,Z)-5-((E)-3-(3-(6-hydroxy-6-methylheptyl)phenyl)hept-2-enyliden)-4-methylenecyclohexane-1,3-diol] |  |  |  | 84% | 84% | 74% | 71% | 81% | 20% |  |  |  |  |
| 0% | 9% | 18.4 nM | does not produce hypercalcemia | 11.4 nM | C=C1/C(=C\C=C(/CCCCCC)c2cccc(CCCCCC(C)(C)O)c2)C[C@@H](O)C[C@@H]1O [PG-156, (1R,3S,Z)-5-((E)-3-(3-(6-hydroxy-6-methylheptyl)phenyl)non-2-enyliden)-4-methylenecyclohexane-1,3-diol] |  |  |  | 79% | 80% | 78% | 74% | 76% | 17% |  |  |  |  |
| 0% | 7% | 23.5 nM | does not produce hypercalcemia | 34.6 nM | C=C1/C(=C\C=C(/CCCCCCC)c2cccc(CCCCCC(C)(C)O)c2)C[C@@H](O)C[C@@H]1O [PG-403, (1R,3S,Z)-5-((E)-3-(3-(6-hydroxy-6-methylheptyl)phenyl)dec-2-enyliden)-4-methylenecyclohexane-1,3-diol] |  |  |  | 55% | 79% | 69% | 71% | 83% | 6% | inhibit the three-dimensional growth, similarly to 1,25D | did not significantly raise serum calcium | does not produce hypercalcemia; also recorded: None of the two analogues tested (PG136p and PG-403) induces increased serum calcium | does not change the body weight; also recorded: did not significantly affect the body weight |
